The series is described as follows: xn = mol fraction of the nth substance listed. To be noted: 101 kPa.

A word on the viscosity: it is the internal friction of a fluid under shear. A high value points to sluggish flow. As to `[Cl-].c1ccc(C[P+](c2ccccc2)(c2ccccc2)c2ccccc2)cc1` + OCC(O)CO, the viscosity reads like this: (296.84 K, x2 = 0.9412) 1359.8 mPa·s; (301.89 K, x2 = 0.9412) 943 mPa·s; (312.13 K, x2 = 0.9412) 459 mPa·s; (317.31 K, x2 = 0.9412) 306 mPa·s; (332.72 K, x2 = 0.9412) 110.5 mPa·s; (353.18 K, x2 = 0.9412) 59.49 mPa·s. Moreover, the electrical conductivity reads like this: (298.1 K, x2 = 0.9412) 0.007 S/m; (313.32 K, x2 = 0.9412) 0.0174 S/m; (328.03 K, x2 = 0.9412) 0.0419 S/m.
With `C[P+](c1ccccc1)(c1ccccc1)c1ccccc1.[Br-]` + OCC(O)CO, the viscosity reads like this: (296.97 K, x2 = 0.75) 2771 mPa·s; (301.89 K, x2 = 0.75) 1657 mPa·s; (306.95 K, x2 = 0.75) 1002.8 mPa·s; (312 K, x2 = 0.75) 612 mPa·s; (317.18 K, x2 = 0.75) 382 mPa·s; (353.18 K, x2 = 0.75) 59.5 mPa·s.

The values are drawn from a compilation of properties of binary mixtures (doi:10.1016/j.molliq.2015.11.032).
